“And” between values parts separate entries of the source, which are not always exact repeats. Equal values may be shown once. Toxic doses and inconclusive results are not listed.
Tested on: P388 leukemia ip, CD2F1 mice, survival T/C
Assay: NCI In Vivo Anticancer Drug Screen. Data for tumor model P388 Leukemia (intraperitoneal) in CD2F1 (CDF1) mice
Conditions: endpoint: median survival time, higher = longer survival
Procedure, shortened: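 Mice carrying the transplanted tumor received test compound or vehicle. Survival was recorded in each group, and the value is the treated-group measurement divided by that of the vehicle-treated control group.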

[1] = dose: 60.0 mg/kg/injection, schedule: Q01DX005 (ip), vehicle: saline with Tween-80
[2] = dose: 120.0 mg/kg/injection, schedule: Q01DX005 (ip), vehicle: saline with Tween-80
[3] = dose: 240.0 mg/kg/injection, schedule: Q01DX005 (ip), vehicle: saline with Tween-80
[4] = dose: 60.0 mg/kg/injection, schedule: Q01DX005 (ip), vehicle: saline
[5] = dose: 120.0 mg/kg/injection, schedule: Q01DX005 (ip), vehicle: saline
[6] = dose: 240.0 mg/kg/injection, schedule: Q01DX005 (ip), vehicle: saline
[7] = dose: 50.0 mg/kg/injection, schedule: Q01DX005 (ip), vehicle: saline with Tween-80
[8] = dose: 100.0 mg/kg/injection, schedule: Q01DX005 (ip), vehicle: saline with Tween-80

Which results are given for `COC(=O)CCC(=O)CN1C(=O)c2ccccc2C1=O`?
T/C [1]: 106 % of control; T/C [2]: 111 % of control; T/C [3]: 111 % of control

`CCC12CCCN1CCc1c([nH]c3ccccc13)C2=O` (centres undefined) was tested. Which T/C (dose: 100.0 mg/kg/injection, schedule: Q04DX002 (ip), vehicle: suspension in saline) did it give?
Its T/C is 105 % of control.

What about the T/C (dose: 200.0 mg/kg/injection, schedule: Q04DX002 (ip), vehicle: suspension in saline) of the same compound?
Its T/C is 99 % of control.

Which results are given for `O=c1[nH]cnc2nc(/N=N/SCCO)[nH]c12`?
T/C (dose: 25.0 mg/kg/injection, schedule: Q01DX005 (ip), vehicle: Klucel (hydroxypropylcellulose) (HPC)): 104 % of control; T/C (dose: 50.0 mg/kg/injection, schedule: Q01DX005 (ip), vehicle: Klucel (hydroxypropylcellulose) (HPC)): 110 % of control; T/C (dose: 100.0 mg/kg/injection, schedule: Q01DX005 (ip), vehicle: Klucel (hydroxypropylcellulose) (HPC)): 119 % of control

What does the source list for `CCOC(=O)C12OC(=O)CC(NC1C(=O)OC(C)(C)C)C2O` (centres undefined)?
T/C [4]: 98 % of control; T/C [5]: 91 % of control; T/C [6]: 104 % of control

Which T/C [4] does the source give for `O=C(O)c1ncnn1-c1ccccc1` here?
The T/C was 91 % of control.

And the T/C [5]?
The T/C was 96 % of control.

And the T/C [6]?
Its T/C is 99 % of control.

Which T/C (dose: 6.25 mg/kg/injection, schedule: Q01DX009 (ip), vehicle: saline) does the source give for `CCC(=O)NC(CC(C)C)C(=O)NC(CC(C)C)C(=O)NC(C=O)CCCN=C(N)N` (centres undefined) (tested in a mixture with another compound) here?
The T/C was 103 % of control.

And the T/C (dose: 12.5 mg/kg/injection, schedule: Q01DX009 (ip), vehicle: saline)?
Its T/C is 102 % of control and 104 % of control.

What about the T/C (dose: 25.0 mg/kg/injection, schedule: Q01DX009 (ip), vehicle: saline) of the same compound?
Its T/C is 104 % of control and 96 % of control.

And the T/C (dose: 50.0 mg/kg/injection, schedule: Q01DX009 (ip), vehicle: saline)?
Its T/C is 102 % of control and 108 % of control.

What about the T/C (dose: 100.0 mg/kg/injection, schedule: Q01DX009 (ip), vehicle: saline) of the same compound?
The T/C was 110 % of control.

`CN(Cc1ccc2nc(N)[nH]c(=O)c2c1)c1ccc(C(=O)NC(CCC(=O)O)C(=O)O)cc1` (centres undefined) was tested. Which T/C [7] did it give?
The T/C was 95 % of control.

And the T/C [8]?
The T/C was 102 % of control.

Which results are given for `CNC(=S)C#N`?
T/C (dose: 25.0 mg/kg/injection, schedule: Q01DX005 (ip), vehicle: saline + Tween-80 + alcohol): 122 % of control; T/C (dose: 50.0 mg/kg/injection, schedule: Q01DX005 (ip), vehicle: saline + Tween-80 + alcohol): 111 % of control and 119 % of control; T/C (dose: 100.0 mg/kg/injection, schedule: Q01DX005 (ip), vehicle: saline + Tween-80 + alcohol): 119 % of control

`c1nnc(NCNc2nncs2)s1` was tested. Which T/C (dose: 100.0 mg/kg/injection, schedule: Q04DX003 (ip), vehicle: saline) did it give?
Its T/C is 240 % of control.

And the T/C (dose: 200.0 mg/kg/injection, schedule: Q04DX003 (ip), vehicle: saline)?
The T/C was 109 % of control.

With `Cc1ccccc1/C=C1/C(=O)C(c2ccccc2)=C1c1ccccc1` as the compound, how does the T/C (dose: 100.0 mg/kg/injection, schedule: Q01DX001 (ip), vehicle: Klucel (hydroxypropylcellulose) (HPC)) read?
The T/C was 105 % of control.

And the T/C (dose: 200.0 mg/kg/injection, schedule: Q01DX001 (ip), vehicle: Klucel (hydroxypropylcellulose) (HPC))?
The T/C was 106 % of control.

What about the T/C (dose: 400.0 mg/kg/injection, schedule: Q01DX001 (ip), vehicle: Klucel (hydroxypropylcellulose) (HPC)) of the same compound?
The T/C was 100 % of control.

Which T/C (dose: 0.19 mg/kg/injection, schedule: Q03HX024 (ip), vehicle: other) does the source give for `COc1ccc(CC2C(=O)NC(C)C(=O)N(C)C3Cc4ccc(cc4)Oc4cc(ccc4O)CC(C(=O)NC(C)C(=O)NC(C)C(=O)N2C)N(C)C3=O)cc1` (centres undefined) here?
Its T/C is 156 % of control.

And the T/C (dose: 0.38 mg/kg/injection, schedule: Q03HX024 (ip), vehicle: other)?
The T/C was 171 % of control.

What about the T/C (dose: 0.45 mg/kg/injection, schedule: Q01DX005 (iv), vehicle: other) of the same compound?
Its T/C is 108 % of control.

And the T/C (dose: 0.5 mg/kg/injection, schedule: Q01DX009 (ip), vehicle: other)?
Its T/C is 161 % of control.

And the T/C (dose: 0.75 mg/kg/injection, schedule: Q03HX024 (ip), vehicle: other)?
Its T/C is 167 % of control.

And the T/C (dose: 0.9 mg/kg/injection, schedule: Q01DX005 (ip), vehicle: other)?
The T/C was 166 % of control.

And the T/C (dose: 0.9 mg/kg/injection, schedule: Q01DX005 (iv), vehicle: other)?
The T/C was 96 % of control.

And the T/C (dose: 1.0 mg/kg/injection, schedule: Q01DX009 (ip), vehicle: other)?
Its T/C is 172 % of control.

And the T/C (dose: 1.0 mg/kg/injection, schedule: Q01DX009 (ip), vehicle: saline with Tween-80)?
The T/C was 163 % of control.

What about the T/C (dose: 1.13 mg/kg/injection, schedule: Q01DX001 (iv), vehicle: other) of the same compound?
Its T/C is 103 % of control.

What about the T/C (dose: 1.13 mg/kg/injection, schedule: Q03HX008 (ip), vehicle: other) of the same compound?
The T/C was 162 % of control.

And the T/C (dose: 1.5 mg/kg/injection, schedule: Q04DX003 (ip), vehicle: other)?
The T/C was 157 % of control.

And the T/C (dose: 1.8 mg/kg/injection, schedule: Q01DX005 (ip), vehicle: other)?
Its T/C is 173 % of control.

What about the T/C (dose: 1.8 mg/kg/injection, schedule: Q01DX005 (iv), vehicle: other) of the same compound?
The T/C was 99 % of control.

And the T/C (dose: 2.0 mg/kg/injection, schedule: Q01DX009 (ip), vehicle: other)?
Its T/C is 192 % of control.

And the T/C (dose: 2.0 mg/kg/injection, schedule: Q01DX009 (ip), vehicle: saline with Tween-80)?
The T/C was 152 % of control and 159 % of control.

And the T/C (dose: 2.0 mg/kg/injection, schedule: Q01DX009 (oral), vehicle: other)?
The T/C was 105 % of control.

What about the T/C (dose: 2.25 mg/kg/injection, schedule: Q01DX001 (iv), vehicle: other) of the same compound?
Its T/C is 105 % of control.

And the T/C (dose: 3.0 mg/kg/injection, schedule: Q04DX003 (ip), vehicle: other)?
Its T/C is 152 % of control.

What about the T/C (dose: 3.6 mg/kg/injection, schedule: Q01DX005 (ip), vehicle: other) of the same compound?
The T/C was 163 % of control.

What about the T/C (dose: 3.6 mg/kg/injection, schedule: Q01DX005 (iv), vehicle: other) of the same compound?
The T/C was 116 % of control.

What about the T/C (dose: 4.0 mg/kg/injection, schedule: Q01DX009 (ip), vehicle: other) of the same compound?
The T/C was 193 % of control.

What about the T/C (dose: 4.0 mg/kg/injection, schedule: Q01DX009 (ip), vehicle: saline with Tween-80) of the same compound?
Its T/C is 174 % of control and 186 % of control.

And the T/C (dose: 4.0 mg/kg/injection, schedule: Q01DX009 (oral), vehicle: other)?
The T/C was 103 % of control.

And the T/C (dose: 4.5 mg/kg/injection, schedule: Q01DX001 (iv), vehicle: other)?
Its T/C is 111 % of control.

And the T/C (dose: 6.0 mg/kg/injection, schedule: Q04DX003 (ip), vehicle: other)?
The T/C was 163 % of control.

And the T/C (dose: 7.2 mg/kg/injection, schedule: Q01DX005 (ip), vehicle: other)?
The T/C was 182 % of control.

What about the T/C (dose: 7.2 mg/kg/injection, schedule: Q01DX005 (iv), vehicle: other) of the same compound?
Its T/C is 153 % of control.

And the T/C (dose: 8.0 mg/kg/injection, schedule: Q01DX009 (ip), vehicle: other)?
The T/C was 233 % of control.

What about the T/C (dose: 8.0 mg/kg/injection, schedule: Q01DX009 (ip), vehicle: saline with Tween-80) of the same compound?
Its T/C is 155 % of control.

What about the T/C (dose: 8.0 mg/kg/injection, schedule: Q01DX009 (oral), vehicle: other) of the same compound?
Its T/C is 96 % of control.

And the T/C (dose: 9.0 mg/kg/injection, schedule: Q01DX001 (iv), vehicle: other)?
The T/C was 123 % of control.

What about the T/C (dose: 12.0 mg/kg/injection, schedule: Q04DX003 (ip), vehicle: other) of the same compound?
Its T/C is 153 % of control.

What about the T/C (dose: 16.0 mg/kg/injection, schedule: Q01DX009 (oral), vehicle: other) of the same compound?
The T/C was 97 % of control.

And the T/C (dose: 32.0 mg/kg/injection, schedule: Q01DX009 (oral), vehicle: other)?
The T/C was 94 % of control.

How did the T/C [7] turn out when `CCOC(=O)c1c(-c2ccccc2)csc1NC(=O)CN1CCCCC1` was run?
Its T/C is 98 % of control.

What about the T/C [8] of the same compound?
Its T/C is 114 % of control.

And the T/C (dose: 200.0 mg/kg/injection, schedule: Q01DX005 (ip), vehicle: saline with Tween-80)?
Its T/C is 113 % of control.

Which results are given for `NC(=O)NC(=O)C(Cc1ccccc1)c1ccccc1` (centres undefined)?
T/C [1]: 99 % of control; T/C [2]: 95 % of control; T/C [3]: 86 % of control

What does the source list for `Cc1[nH]c(N)nc(=S)c1CCCOc1ccc([N+](=O)[O-])cc1`?
T/C [1]: 99 % of control; T/C [2]: 93 % of control; T/C [3]: 97 % of control

How did the T/C (dose: 12.5 mg/kg/injection, schedule: Q01DX005 (ip), vehicle: saline with Tween-80) turn out when `CC1CC(c2ccccc2)(c2ccccc2)CN1C` (centres undefined) was run?
Its T/C is 105 % of control.

What about the T/C (dose: 25.0 mg/kg/injection, schedule: Q01DX005 (ip), vehicle: saline with Tween-80) of the same compound?
Its T/C is 102 % of control.

And the T/C [7]?
The T/C was 102 % of control and 103 % of control.

Which results are given for `COC(=O)c1cc(-c2ccccc2)[nH]c(=O)c1C#N`?
T/C [4]: 100 % of control; T/C [5]: 100 % of control

For `O=C(NO)c1ccccc1O`, which T/C (dose: 100.0 mg/kg/injection, schedule: Q01DX009 (ip), vehicle: saline with Tween-80) is on record?
The T/C was 110 % of control.

And the T/C (dose: 100.0 mg/kg/injection, schedule: Q04DX003 (ip), vehicle: saline with Tween-80)?
Its T/C is 86 % of control.

What about the T/C (dose: 200.0 mg/kg/injection, schedule: Q01DX009 (ip), vehicle: saline with Tween-80) of the same compound?
The T/C was 100 % of control.

And the T/C (dose: 200.0 mg/kg/injection, schedule: Q04DX003 (ip), vehicle: saline with Tween-80)?
Its T/C is 90 % of control.

What about the T/C (dose: 400.0 mg/kg/injection, schedule: Q01DX009 (ip), vehicle: saline with Tween-80) of the same compound?
The T/C was 110 % of control.

What about the T/C (dose: 400.0 mg/kg/injection, schedule: Q04DX003 (ip), vehicle: saline with Tween-80) of the same compound?
Its T/C is 100 % of control.

Source: PubChem BioAssay AID330 (DTP/NCI, 2004)
